# In patent US9273057B2 (Bristol-Myers Squibb Company, priority 2012, dated 2016):
# Where a name gives a salt, the structure may show the parent alone.
# Target: CK2A1 (CK2α/β) (Homo sapiens, UniProt P68400)
# Experiment: CK2 kinase assay, CK2A1 (CK2α/β)
# Assay type: biochemical
# Conditions: CK2A1 (CK2α/β) (IC50, nM), Table A
# Chain of CK2A1 (CK2α/β) (P68400 whole entry, species assumed): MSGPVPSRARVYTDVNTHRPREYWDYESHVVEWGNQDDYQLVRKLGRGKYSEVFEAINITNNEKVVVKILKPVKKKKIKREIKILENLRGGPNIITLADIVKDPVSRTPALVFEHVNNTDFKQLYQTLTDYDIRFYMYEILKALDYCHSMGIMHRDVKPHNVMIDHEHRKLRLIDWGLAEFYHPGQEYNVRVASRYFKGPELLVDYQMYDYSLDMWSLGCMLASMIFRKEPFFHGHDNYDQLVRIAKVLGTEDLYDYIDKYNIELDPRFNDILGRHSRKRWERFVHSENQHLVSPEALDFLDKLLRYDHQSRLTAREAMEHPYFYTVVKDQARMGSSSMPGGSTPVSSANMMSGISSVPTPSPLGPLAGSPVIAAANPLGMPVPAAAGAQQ
# Chain of CK2A1 (CK2α/β) (P67870 whole entry partner, species assumed): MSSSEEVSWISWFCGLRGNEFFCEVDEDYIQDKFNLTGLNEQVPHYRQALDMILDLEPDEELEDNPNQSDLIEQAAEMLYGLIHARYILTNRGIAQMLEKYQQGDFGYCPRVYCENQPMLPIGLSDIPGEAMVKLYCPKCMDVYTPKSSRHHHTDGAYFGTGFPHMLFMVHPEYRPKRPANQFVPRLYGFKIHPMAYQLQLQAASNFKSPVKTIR
row,Structure (SMILES),IC50 [nM]
1,"CCNc1nc(Nc2cc(C#N)cc(N3CC[C@@H](NC(=O)OC)[C@H](OC(=O)Cc4ccc(OP(=O)(O)O)cc4)C3)c2Cl)nn2c(C#N)cnc12 [Example 344, (3R,4R)-1-(2-chloro-5-cyano-3-((7-cyano-4-(ethylamino)imidazo[2,1-f][1,2,4]triazin-2-yl)amino)phenyl)-4-((methoxycarbonyl)amino)piperidin-3-yl 2-(4-(phosphonooxy)phenyl)acetate]",3

# Same assay, conditions: Table A; read-out: CK2A1 (CK2α/β) (IC50)
row,Structure (SMILES),IC50 [nM]
1,"N#Cc1cc(Nc2nc(NC3CC3)c3ncc(C#N)n3n2)c(Cl)c([C@H]2CCC[C@@H](N3CC(O)C3)C2)c1 (single isomer, unassigned) [Example 731]",1.46
2,"N#Cc1cc(Nc2nc(NC3CC3)c3ncc(C#N)n3n2)c(Cl)c(N2CC[C@H](N)[C@H](F)C2)c1 [Example 283, 2-((3-((3R,4S)-4-amino-3-fluoropiperidin-1-yl)-2-chloro-5-cyanophenyl)amino)-4-(cyclopropylamino)imidazo[2,1-f][1,2,4]triazine-7-carbonitrile, HCl]",0.79
3,"CC(=O)N1CC(N2CCN(c3cc(OC(F)F)cc(Nc4nc(NC5CC5)c5ncc(C#N)n5n4)c3Cl)CC2)C1 [Example 559, 2-((3-(4-(1-acetylazetidin-3-yl)piperazin-1-yl)-2-chloro-5-(difluoromethoxy)phenyl)amino)-4-(cyclopropylamino)imidazo[2,1-f][1,2,4]triazine-7-carbonitrile]",2.37
4,"CCNc1nc(Nc2ccc3c(c2)c(C#N)cn3C2CCN(C3CN(C4COC4)C3)CC2)nn2c(C#N)cnc12 [Example 835, 2-((3-cyano-1-(1-(1-(oxetan-3-yl)azetidin-3-yl)piperidin-4-yl)-1H-indol-5-yl)amino)-4-(ethylamino)imidazo[2,1-f][1,2,4]triazine-7-carbonitrile]",0.98
5,"CC1CN(C2CCN(c3cc(C#N)cc(Nc4nc(NC5CC5)c5ncc(C#N)n5n4)c3Cl)CC2)CC(C)O1 (racemic) [Example 109, (+/−) 2-((2-chloro-5-cyano-3-(4-(2,6-dimethyl-4-morpholinyl)-1-piperidinyl)phenyl)amino)-4-(cyclopropylamino)imidazo [2,1-f][1,2,4]triazine-7-carbonitrile]",4.09
6,"COC[C@H](O)CNC1CCN(c2cc(C#N)cc(Nc3nc(NC4CC4)c4ncc(C#N)n4n3)c2Cl)CC1 [Example 145, 2-((2-chloro-5-cyano-3-(4-(((2R)-2-hydroxy-3-methoxypropyl)amino)-1-piperidinyl)phenyl)amino)-4-(cyclopropylamino)imidazo [2,1-f][1,2,4]triazine-7-carbonitrile]",5.48
7,"CC1(CN2CCC(c3cc(C#N)cc(Nc4nc(NC5CC5)c5ncc(C#N)n5n4)c3Cl)CC2)COC1 [Example 225, 2-((2-chloro-5-cyano-3-(1-((3-methyl-3-oxetanyl)methyl)-4-piperidinyl)phenyl)amino)-4-(cyclopropylamino)imidazo[2,1-f][1,2,4]triazine-7-carbonitrile]",2
8,"CC(CCc1cc(Cl)c(Nc2nc(NC3CC3)c3ncc(C#N)n3n2)cc1C#N)N1CCOCC1 (centres unmarked) [Example 720, 2-((2-chloro-5-cyano-4-(3-morpholinobutyl)phenyl)amino)-4-(cyclopropylamino)imidazo[2,1-f][1,2,4]triazine-7-carbonitrile]",2.48
9,"CC(C)(F)C(=O)N1CC(N2CCN(c3cc(C#N)cc(Nc4nc(NC5CC5)c5ncc(C#N)n5n4)c3Cl)CC2)C1 [Example 499, 2-[(2-chloro-5-cyano-3-{4-[1-(2-fluoro-2-methylpropanoyl)azetidin-3-yl]piperazin-1-yl}phenyl)amino]-4-(cyclopropylamino)imidazo[2,1-f][1,2,4]triazine-7-carbonitrile]",3.93

# The next lines start with the values.
row,IC50 [nM],Structure (SMILES)
1,0.72,"CN1CCN(CCCc2cc(C#N)cc(Nc3nc(NC4CC4)c4ncc(C#N)n4n3)c2Cl)CC1 [Example 577, 2-((2-chloro-5-cyano-3-(3-(4-methylpiperazin-1-yl)propyl)phenyl)amino)-4-(cyclopropylamino)imidazo[2,1-f][1,2,4]triazine-7-carbonitrile]"
2,0.69,"N#Cc1cc(Nc2nc(NC3CC3)c3ncc(C#N)n3n2)c(Cl)c(N2CCC(N[C@H]3CC[C@H](O)C3)CC2)c1 (racemic) [Example 120, (+/−) 2-((2-chloro-5-cyano-3-(4-(((1S,3S)-3-hydroxycyclopentyl)amino)-1-piperidinyl)phenyl)amino)-4-(cyclopropylamino)imidazo [2,1-f][1,2,4]triazine-7-carbonitrile]"
3,0.68,"CN1CC(NC2CCN(c3cc(C#N)cc(Nc4nc(NC5CC5)c5ncc(C#N)n5n4)c3Cl)CC2)CC1=O (racemic) [Example 116, (+/−) 2-((2-chloro-5-cyano-3-(4-((1-methyl-5-oxo-3-pyrrolidinyl)amino)-1-piperidinyl)phenyl)amino)-4-(cyclopropylamino)imidazo [2,1-f][1,2,4]triazine-7-carbonitrile]"
4,0.64,"CC(=O)NCC(=O)N1CC(N2CCN(c3cc(C#N)cc(Nc4nc(NC5CC5)c5ncc(C#N)n5n4)c3Cl)CC2)C1 [Example 492, N-(2-{3-[4-(2-chloro-5-cyano-3-{[7-cyano-4-(cyclopropylamino)imidazo[2,1-f][1,2,4]triazin-2-yl]amino}phenyl)piperazin-1-yl]azetidin-1-yl}-2-oxoethyl)acetamide]"
5,0.62,"N#Cc1cc(Nc2nc(NC3CC3)c3ncc(C#N)n3n2)c(Cl)c(C2CCN(CC3CC3)CC2)c1 [Example 215, 2-((2-chloro-5-cyano-3-(1-(cyclopropylmethyl)-4-piperidinyl)phenyl)amino)-4-(cyclopropylamino)imidazo[2,1-f][1,2,4]triazine-7-carbonitrile]"
6,0.58,"CN1CC2(CCN(c3cc(C#N)cc(Nc4nc(NC5CC5)c5ncc(C#N)n5n4)c3Cl)CC2)CC1=O (racemic) [Example 782, (+/−)-2-((2-chloro-5-cyano-3-(2-methyl-3-oxo-2,8-diazaspiro[4.5]decan-8-yl)phenyl)amino)-4-(cyclopropylamino)imidazo[2,1-f][1,2,4]triazine-7-carbonitrile]"
7,0.55,"CC1(N)CCN(c2cc(C#N)cc(Nc3nc(NC4CC4)c4ncc(C#N)n4n3)c2Cl)CC1 [Example 18, 2-((3-(4-amino-4-methyl-1-piperidinyl)-2-chloro-5-cyanophenyl)amino)-4-(cyclopropylamino)imidazo [2,1-f][1,2,4]triazine-7-carbonitrile]"
8,0.53,"CC(C)(O)C(=O)N1CCN(c2cc(C#N)cc(Nc3nc(NC4CC4)c4ncc(C#N)n4n3)c2Cl)CC1 [Example 79, 2-((2-chloro-5-cyano-3-(4-(2-hydroxy-2-methylpropanoyl)-1-piperazinyl)phenyl)amino)-4-(cyclopropylamino) imidazo[2,1-f][1,2,4] triazine-7-carbonitrile]"
9,0.42,"Cn1cnc2cc(Nc3nc(NC4CC4)c4ncc(C#N)n4n3)ccc21 [Example 3, 4-(cyclopropylamino)-2-((1-methyl-1H-benzimidazol-5-yl)amino)imidazo[2,1-f][1,2,4]triazine-7-carbonitrile]"
10,0.16,"CC(O)CCc1cc(Cl)c(Nc2nc(NC3CC3)c3ncc(C#N)n3n2)cc1C#N (centres unmarked) [Example 722, 2-{[2-chloro-5-cyano-4-(3-hydroxybutyl)phenyl]amino}-4-(cyclopropylamino)imidazo [2,1-f][1,2,4]triazine-7-carbonitrile]"
